Consider 22 compounds from US6656911B2, “Serine protease inhibitors” (Cortech, Inc., priority 1994, dated 2003).

As usually defined, the Ki is the equilibrium dissociation constant of an inhibitor or competing ligand from its target.

The assay deals with T1, human neutrophil elastase (HNE) (Homo sapiens, UniProt P08246).
T1 sequence (P08246 30-267): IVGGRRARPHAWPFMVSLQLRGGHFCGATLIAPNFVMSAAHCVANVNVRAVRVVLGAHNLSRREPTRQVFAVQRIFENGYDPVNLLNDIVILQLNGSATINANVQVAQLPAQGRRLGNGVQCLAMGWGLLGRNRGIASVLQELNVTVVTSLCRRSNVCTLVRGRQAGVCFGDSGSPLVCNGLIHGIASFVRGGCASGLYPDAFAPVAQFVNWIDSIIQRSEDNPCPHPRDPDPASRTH
As to the kind of experiment: HNE Ki of CE compounds, tested as described in WO 96/16080. The assay is classed as biochemical. The settings on record: read-out: HNE Ki.
For “2-Oxo-5-methyl-1,4-(1-thiophenodiazepine)-N-[1-(2-[5-(3-methylbenzyl)-1,3,4-oxadiazolyl]carbonyl)-2-(S)-methylpropyl]acetamide [CE2244]”, the inhibition constant Ki worked out at 78.5 nM.
Turning to “3-(S)-Amino-ε-lactam-N-[1-(2-[5-(3-methylbenzyl)-1,3,4-oxadiazolyl]carbonyl)-2-(S)-methylpropyl]acetamide trifluoroacetic acid salt [CE2080]”, the Ki stood at 62 nM.
As for “3-(S)-[(4-Morpholino carbonyl-butanoyl)amino]-ε-lactam-N-[1-(2-[5-(3-methylbenzyl)-1,3,4-oxadiazolyl]carbonyl)-2-(R,S)-methylpropyl]acetamide [CE2091]”, the figure is 270 nM.
Consider `Cc1cc(C)cc(Cc2nc(C(=O)[C@@H](NC(=O)[C@@H]3CCCN3C(=O)[C@@H](NC(=O)OCc3ccccc3)C(C)C)C(C)C)no2)c1` [CE2052, (Benzyloxycarbonyl)-L-valyl-N-[1-(3-[5-(3,5-dimethylbenzyl)-1,2,4-oxadiazolyl)carbonyl)-2-(S)-methylpropyl]-L-prolinamide], for which the Ki was found to be 0.37 nM.
To `COc1cc(Cc2nc(C(=O)[C@@H](NC(=O)[C@@H]3CCCN3C(=O)[C@@H](NC(=O)OCc3ccccc3)C(C)C)C(C)C)no2)cc(OC)c1` [CE2053, (Benzyloxycarbonyl)-L-valyl-N-[1-(3-[5-(3,5-dimethoxybenzyl)-1,2,4-oxadiazolyl]carbonyl)-2-(S)-methylpropyl]-L-prolinamide] belongs 0.41 nM; to `CC(C)[C@H](NC(=O)[C@@H]1CCCN1C(=O)[C@@H](NC(=O)OCc1ccccc1)C(C)C)C(=O)c1noc(Cc2cc(C(F)(F)F)cc(C(F)(F)F)c2)n1` [CE2054, (Benzyloxycarbonyl)-L-valyl-N-[1-(3-[5-(3,5-ditrifluoromethylbenzyl)-1,2,4-oxadiazolyl]carbonyl)-2-(S)-methylpropyl]-L-prolinamide], 0.29 nM.
Turning to `CC(C)[C@H](NC(=O)[C@@H]1CCCN1C(=O)[C@@H](NC(=O)OCc1ccccc1)C(C)C)C(=O)c1noc(C(c2ccccc2)c2ccccc2)n1` [CE2057], the Ki is 0.375 nM.
Regarding `CC(C)[C@H](NC(=O)[C@@H]1CCCN1C(=O)[C@@H](NC(=O)OCc1ccccc1)C(C)C)C(=O)c1noc(Cc2ccc(-c3ccccc3)cc2)n1` [CE2058, (Benzyloxycarbonyl)-L-valyl-N-[1-(3-[5-(4-phenylbenzyl)-1,2,4-oxadiazolyl]carbonyl)-2-(S)-methylpropyl]-L-prolinamide], the Ki worked out at 0.564 nM.
To `CC(C)[C@H](NC(=O)[C@@H]1CCCN1C(=O)[C@@H](NC(=O)OCc1ccccc1)C(C)C)C(=O)c1noc(Cc2cccc(-c3ccccc3)c2)n1` [CE2062, (Benzyloxycarbonyl)-L-valyl-N-[1-(3-[5{3-phenylbenzyl)-1,2,4-oxadiazolyl]carbonyl)-2-(S)-methylpropyl]-L-prolinamide] belongs 0.3 nM; to `CC(C)[C@H](NC(=O)[C@@H]1CCCN1C(=O)[C@@H](NC(=O)OCc1ccccc1)C(C)C)C(=O)c1noc(Cc2cccc(Oc3ccccc3)c2)n1` [CE2066, (Benzyloxycarbonyl)-L-valyl-N-[1-(3-[5-(3-phenoxybenzyl)-1,2,4-oxadiazolyl]carbonyl)-2-(S)-methylpropyl]-L-prolinamide], 0.98 nM; to `CC(C)[C@H](NC(=O)[C@@H]1CCCN1C(=O)[C@@H](NC(=O)OCc1ccccc1)C(C)C)C(=O)c1noc(CC2CCCCC2)n1` [CE2069], 4.4 nM.
On to `CC(C)[C@H](NC(=O)[C@@H]1CCCN1C(=O)[C@@H](NC(=O)OCc1ccccc1)C(C)C)C(=O)c1noc(C(C)(C)c2cccc(C(F)(F)F)c2)n1` [CE2073, (Benzyloxycarbonyl)-L-valyl-N-[1-(3-[5-(α,α-dimethyl-3-trifluoromethylbenzyl)-1,2,4-oxadiazolyl]carbonyl)-2-(S)-methylpropyl]-L-prolinamide], for which the Ki worked out at 0.235 nM.
In the case of `Cc1nnc(C(=O)[C@@H](NC(=O)[C@@H]2CCCN2C(=O)[C@@H](NC(=O)OCc2ccccc2)C(C)C)C(C)C)o1` [CE2074], the Ki came to 1 nM.
Take `CC(C)[C@H](NC(=O)[C@@H]1CCCN1C(=O)[C@@H](NC(=O)OCc1ccccc1)C(C)C)C(=O)c1nnc(Cc2cccc(C(F)(F)F)c2)o1` [CE2075, (Benzyloxycarbonyl)-L-valyl-N-[1-(2-[5-(3-trifluoromethylbenzyl)-1,3,4-oxadiazolyl]carbonyl)-2-(S)-methylpropyl]-L-prolinamide]: the Ki was 0.039 nM.
With `CC(C)[C@H](NC(=O)[C@@H]1CCCN1C(=O)[C@@H](NC(=O)OCc1ccccc1)C(C)C)C(=O)c1noc(Cc2cccc3ccccc23)n1` [CE2077, (Benzyloxycarbonyl)-L-valyl-N-[1-(3-[5-(1-napthylmethylene)-1,2,4-oxadiazolyl]carbonyl)-2-(S)-methylpropyl]-L-prolinamide], the Ki worked out at 0.15 nM.
In the case of `CC(C)[C@H](NC(=O)[C@@H]1CCCN1C(=O)[C@@H](NC(=O)OCc1ccccc1)C(C)C)C(=O)c1noc(Cc2cccnc2)n1` [CE2078, (Benzyloxycarbonyl)-L-valyl-N-[1-(3-[5-(3-pyridylmethyl)-1,2,4-oxadiazolyl]carbonyl)-2-(S)-methylpropyl]-L-prolinamide], the Ki is 1.05 nM.
For the compound `CC(C)C(NC(=O)CN1C(=O)CN(C)C(=O)C1c1ccccc1)C(=O)c1noc(Cc2cccc(C(F)(F)F)c2)n1` [CE2084, 4-[1-Methyl-3-(R,S)-phenylpiperazine-2,5,-dione]-N-[1-(3-[5-(3-trifluoromethylbenzyl)-1,2,4-oxadiazolyl]carbonyl)-2-(S)-methylpropyl]acetamide], the Ki stood at 133 nM.
In the case of `Cc1cccc(Cc2nnc(C(=O)C(NC(=O)CN3C(=O)CCCC3c3ccc(F)cc3)C(C)C)o2)c1` [CE2087, 6-[4-Fluorophenyl]-ε-lactam-N-[1-(2-[5-(3-methylbenzyl)-1,3,4-oxadiazolyl]carbonyl)-2-(S)-methylpropyl]acetamide], the Ki was 20 nM.
Consider `CC(C)[C@H](NC(=O)Cn1c(-c2ccc(F)cc2)ncc(NC(=O)OCc2ccccc2)c1=O)C(=O)c1noc(Cc2cccc(C(F)(F)F)c2)n1` [CE2089, 2-[5-[(Benzyloxycarbonyl]amino]-6-oxo-2-(4-fluorophenyl)-1,6-dihydro-1-pyrimidinyl]-N-[1-(3-[5-(3-trifluoromethylbenzyl)-1,2,4-oxadiazolyl]carbonyl)7(S)-2-methylpropyl]acetamide], for which the Ki was 1.5 nM.
As to `CC(C)[C@H](NC(=O)Cn1c(-c2ccc(F)cc2)ncc(N)c1=O)C(=O)c1noc(Cc2cccc(C(F)(F)F)c2)n1` [CE2090], the Ki is 2.7 nM.
As for `CC(C)[C@H](NC(=O)[C@@H]1CCCN1C(=O)[C@@H](NC(=O)OCc1ccccc1)C(C)C)C(=O)c1noc(Cc2cc(-c3ccccc3)cc(-c3ccccc3)c2)n1` [CE2096, (Benzyloxycarbonyl)-L-valyl-N-[1-(3-[5-(3,5-diphenylbenzyl)-1,2,4-oxadiazolyl]carbonyl)-2-(S)-methylpropyl]-L-prolinamide], the Ki was 0.79 nM.
To `CC(C)[C@H](NC(=O)CN(Cc1ccccc1)C(=O)c1ccc[nH]1)C(=O)c1noc(Cc2cccc(C(F)(F)F)c2)n1` [CE2097, (Pyrrole-2-carbonyl)-N-(benzyl)glycyl-N-[1-(3-[5-(3-trifluoromethylbenzyl)1-1,2,4-oxadiazolyl]carbonyl)-(S)-methylpropyl]amide] belongs 115 nM.
